Among the data in patent US11497738B2, “Di-substituted pyrazole compounds for the treatment of diseases” (FGH BIOTECH, INC., priority 2016, dated 2022) are inhibition values, retold here.

The test system of this experiment is SCD1 expression. The experiment can be described thus: Inhibition assay: qPCR of SCD1 expression in HepG2 cells (Biological Example 1). It is filed as cell-based. To be noted: Homo sapiens, 24 hours; for inhibition at 1 µM: read-out: Inhibition Percentage (%) 1 μM (SCD1 expression); for inhibition at 10 µM: read-out: Inhibition Percentage (%) 10 μM (SCD1 expression). How it is done: HepG2 cells were grown in Dulbecco's Modified Eagle Medium (DMEM) containing 5% FBS and antibiotic-antimycotic in a humidified incubator at 37° C. with 5% CO2. All three components were purchased from ThermoFisher Scientific (Catalog numbers are 11995073, 26140079, and 15240062, respectively). Treatments were done in duplicates for each dose of each compound. For control and treated each treatment, 400,000 HepG2 cells were seeded onto 1 well of 24-well plate. After one day in culture, cells were treated with the test compound (1 μM and/or 10 μM, as indicated below in Table 1) for 24 hours in DMEM with 5% FBS. Compounds were diluted using DMSO from 20 mM stocks. Total RNAs were extracted using RNA extraction kit (Cat #: 45001163, Fisher Scientific) or Trizol. If Trizol was used, RNAs were treated with DNase I (cat #: 18068015, ThermoFisher Scientific) before qPCR. RNA concentrations were measured on a Nanodrop. One-step qPCR were performed using SYBR Green One Step qPCR Kit (Cat #: B25002, Biotool). 10 ng RNA was used in each 10-ul reaction. Triplicate reactions were done for each RNA sample. qPCR was performed on an ABI StepOnePlus using the program: Holding stage step 1, 50° C. 3 min, step 2, 95° C. 5 min; Cycling stage (40 cycles) step 1, 95° C. 10 sec, step 2, 60° C. 30 sec. Primer sequence was as follows: SCD1, 5′-[…]-3′/5′-[…]-3′.
All data was measured in HepG2 cells. % inhibition data of SCD1 expression are provided in Table 1. % inhibition at 10 μM is provided as follows: A≥75%; 75%>B≥50%; 50%>C≥10%. % inhibition at 1 μM is provided as follows: A1≥30%; 30%>B1≥2%. NI means no inhibition in the assay at the indicated concentration of compound tested. NT means not tested.

`CCCc1cc(-n2cc(-c3ccc(NCC(C)C)nc3)c(C)n2)ccn1` [Example 53, N-isobutyl-5-(3-methyl-1-(2-propylpyridin-4-yl)-1H-pyrazol-4-yl)pyridin-2-amine]: the inhibition at 1 µM lay within 2 to 30% and the inhibition at 10 µM is greater than 75%. For `CCCc1cc(-n2nc(C)c(-c3ccc(NC4CCCC4)nc3)c2C)ccn1` [Example 40, N-cyclopentyl-5-(3,5-dimethyl-1-(2-propylpyridin-4-yl)-1H-pyrazol-4-yl)pyridin-2-amine], in that order: no less than 30% and 50 to 75%.

With `CCCc1cc(-n2cc(-c3ccc(NCC(C)C)nc3)cn2)ccn1` [Example 8, N-isobutyl-5-(1-(2-propylpyridin-4-yl)-1H-pyrazol-4-yl)pyridin-2-amine], the inhibition at 10 µM is greater than 75%. Take `CCCc1cc(-n2cc(-c3ccc(NC4CCCC4)nc3)c(C)n2)ccn1` [Example 55, N-cyclopentyl-5-(3-methyl-1-(2-propylpyridin-4-yl)-1H-pyrazol-4-yl)pyridin-2-amine]: the inhibition at 1 µM lay in the range of 2 to 30% and the inhibition at 10 µM was greater than 75%. The like results for `CCCc1cc(-n2cc(-c3ccc(NC(C)C)cc3Cl)cn2)ccn1` [Example 13, 3-chloro-N-isopropyl-4-(1-(2-propylpyridin-4-yl)-1H-pyrazol-4-yl)aniline] were, in that order, no less than 30% and greater than 75%. For the compound `CCCc1cc(-n2cc(-c3ccc(NC(C)C)cn3)cn2)ccn1` [Example 21, N-isopropyl-6-(1-(2-propylpyridin-4-yl)-1H-pyrazol-4-yl)pyridin-3-amine], the inhibition at 1 µM is 2 to 30% and the inhibition at 10 µM is greater than 75%.
